SMILES strings stand for the structures.

As a reminder, the IC50 is the concentration that inhibits the measured activity by half.

Data set [1] can be described thus: Selectivity ratio IC50 for non-senescent human WI-38 cells to IC50 for ionizing radiation induced human WI-38 senescent cells. Type of data set: functional.
Another data set has as its system WI-38. As to the kind of experiment: Senolytic activity in ionizing radiation induced human WI-38 senescent cells by PI staining based flow cytometry analysis. Type of data set: functional, cell-based. Background: In flow cytometry, cells or beads pass a laser one at a time.
Data set [2] in a line: Senolytic activity in non-senescent human WI-38 cells by PI staining based flow cytometry analysis. Type of data set: toxicity, cell-based. Conditions: non-senescent WI-38 cells.

For the molecule `COc1cc(/C=C/C(=O)N2CCC=C(F)C2=O)cc(OC)c1OC`, the “Ratio IC50” value in data set [1] is 0.8. Moreover, the IC50 in the data set with WI-38 was determined as 15.3 µM; in data set [2] it was 12.1 µM.

As for `COc1cc(/C=C/C(=O)N2CC=CCC2=O)cc(OC)c1OC`, the “Ratio IC50” value in data set [1] is more than 2.9. For the same molecule, the IC50 with WI-38 was 27.5 µM; in data set [2], more than 80 µM.

Turning to `COc1cc(/C=C/C(=O)N2CCC=CC2=O)cc(OC)c1OC` [PIPLARTINE], in data set [1], the “Ratio IC50” value was 2.5. The molecule also registered an IC50 in data set [2] of 20.3 µM.

As to `COc1cc(/C=C/C(=O)N2CCC=C(Br)C2=O)cc(OC)c1OC`, the “Ratio IC50” value in data set [1] is 10.4. Moreover, the IC50 came to 0.52 µM in the data set with WI-38 and 5.4 µM in data set [2].

For the molecule `COc1ccc(/C=C/C(=O)N2CCCC=C(Br)C2=O)cc1`, the “Ratio IC50” value in data set [1] is 4.4. Moreover, the IC50 is 1.3 µM in the data set on WI-38 and 5.8 µM in data set [2].

For the molecule `COc1cc(/C=C/C(=O)N2CCC(=O)CC2)cc(OC)c1OC`, the IC50 (in the data set with WI-38; in data set [2]) was more than 40 µM each time.

On to `COc1cc(/C=C/C(=O)N2CCC=C(C(F)(F)F)C2=O)cc(OC)c1OC`, for which the IC50 (with WI-38; in data set [2]) was more than 40 µM in each case.

For the molecule `COc1cc(/C=C/C(=O)N2CCC=C(Cl)C2=O)cc(OC)c1OC`, the “Ratio IC50” value in data set [1] was 8.1. Besides, the IC50 with WI-38 came out at 0.65 µM; in data set [2], 5.3 µM.

`COc1cc(/C=C/C(=O)N2OCC=CC2=O)cc(OC)c1OC`: the “Ratio IC50” value in data set [1] is reported as 6. Moreover, the results for the concentration for half-maximal inhibition (IC50) (in the data set on WI-38; in data set [2]) were 8.1 µM and 48.9 µM, respectively.

For the molecule `CN(C)CCOc1ccc(/C=C/C(=O)N2CCC=C(Br)C2=O)cc1`, the “Ratio IC50” value in data set [1] was found to be 1.5. For the same molecule, the IC50 stood at 3.2 µM in the data set with WI-38 and 4.8 µM in data set [2].

With `COc1cc(/C=C/C(=O)N2CCCC=C(Br)C2=O)cc(OC)c1OC`, the “Ratio IC50” value in data set [1] is listed as 6.5. Further, the IC50 with WI-38 amounted to 0.56 µM; in data set [2], 3.6 µM.

With `COc1cc(/C=C/C(=O)N2CCC(=O)/C(=C/c3ccc(F)cc3F)C2)cc(OC)c1OC`, in data set [1], the “Ratio IC50” value was determined as 4.2. In addition, the IC50 in the data set with WI-38 is 14.7 µM; in data set [2], 62.5 µM.

On to `COc1cc(C#CC(=O)N2CCC=CC2=O)cc(OC)c1OC`, for which the “Ratio IC50” value in data set [1] stood at 3.2. For the same molecule, the IC50 with WI-38 turned out to be 4.4 µM; in data set [2] it was 13.9 µM.

For the molecule `COc1ccc(/C=C/C(=O)N2CCCC=C(Cl)C2=O)cc1`, the “Ratio IC50” value in data set [1] amounted to 9.3. The IC50 in the data set on WI-38 was found to be 0.16 µM; in data set [2] it was 1.5 µM.

For `COc1cc(/C=C/C(=O)N2CCC(=O)/C(=C/c3ccc(F)cc3)C2)cc(OC)c1OC`, the “Ratio IC50” value in data set [1] stood at 3.9. Also, the results for the IC50 (in the data set on WI-38; in data set [2]) were 14 µM and 53.8 µM, respectively.

As for `COc1cc(/C=C/C(=O)N2C=CC=CCC2=O)cc(OC)c1OC`, the “Ratio IC50” value in data set [1] amounted to 1.3. Besides, the IC50 was determined as 21.1 µM in the data set on WI-38 and 26.7 µM in data set [2].

On to `CN(C)CCOc1ccc(/C=C/C(=O)N2CCC=C(Cl)C2=O)cc1`, for which the “Ratio IC50” value in data set [1] was determined as 1.5. The IC50 turned out to be 2.9 µM in the data set with WI-38 and 4.4 µM in data set [2].

Take `CN(C)CCOc1ccc(/C=C/C(=O)N2CCC=CC2=O)cc1`: in data set [1], the “Ratio IC50” value is listed as 13.3. The IC50 with WI-38 worked out at 1.5 µM; in data set [2] it was 19.5 µM.

On to `O=C(C#Cc1ccccc1)N1CCC=CC1=O`, for which the “Ratio IC50” value in data set [1] was 1.6. The IC50 was found to be 0.93 µM in the data set on WI-38 and 1.5 µM in data set [2].

In the case of `CN(C)CCOc1ccc(/C=C/C(=O)N2CCCC=C(Br)C2=O)cc1`, in data set [1], the “Ratio IC50” value was 1.2. The IC50 in the data set with WI-38 was 2.9 µM; in data set [2], 3.4 µM.

`COc1cc(/C=C/C(=O)N2CCCC=C(Cl)C2=O)cc(OC)c1OC`: the “Ratio IC50” value in data set [1] came out at 3.7. For the same molecule, the figures for the IC50 (with WI-38; in data set [2]) were 0.45 µM and 1.7 µM, respectively.

For `COc1ccc(/C=C/C(=O)N2CCC=C(Br)C2=O)cc1`, in data set [1], the “Ratio IC50” value was determined as 1.8. Further, the figures for the IC50 (in the data set with WI-38; in data set [2]) were 0.63 µM and 1.1 µM, respectively.

Consider `COc1cc(/C=C/C(=O)N2CCC(N(C)C)CC2=O)cc(OC)c1OC` (stereo unspecified), for which, in data set [1], the “Ratio IC50” value turned out to be 3.4. Also, the half-maximal inhibitory concentration (IC50) with WI-38 came to 10.2 µM; in data set [2], 34.6 µM.

With `CN(C)CCOc1ccc(/C=C/C(=O)N2CCCC=C(Cl)C2=O)cc1`, the “Ratio IC50” value in data set [1] was 1.3. The results for the IC50 (in the data set on WI-38; in data set [2]) were 2.4 µM and 3 µM, respectively.

For `COc1cc(/C=C/C(=O)N2CC(O)C=CC2=O)cc(OC)c1OC` (stereo unspecified), in data set [1], the “Ratio IC50” value is recorded as 1.5. The results for the IC50 (with WI-38; in data set [2]) were 7.4 µM and 11.3 µM, respectively.

With `COc1cc(/C=C/C(=O)N2CCC=C(I)C2=O)cc(OC)c1OC`, the “Ratio IC50” value in data set [1] is listed as 7.1. The IC50 in the data set on WI-38 was 2.3 µM; in data set [2], 16.3 µM.

For `COc1ccc(/C=C/C(=O)N2CCC=C(Cl)C2=O)cc1`, the “Ratio IC50” value in data set [1] turned out to be 0.7. Further, the half-inhibitory concentration (IC50) in the data set with WI-38 was determined as 0.51 µM; in data set [2] it was 0.35 µM.

As to `CN(C)C/C=C/C(=O)N1CCC=CC1=O`, in data set [1], the “Ratio IC50” value was 3.5. Also, the IC50 in the data set on WI-38 is 2.8 µM; in data set [2] it was 9.7 µM.

Source of the values: ChEMBL document CHEMBL5356983, “Design and optimization of piperlongumine analogs as potent senolytics” (Bioorg Med Chem Lett, 2024).
